Measured values: US10980809B2, “Urea-substituted aromatic ring-linked dioxane-quinazoline and -linked dioxane-quinoline compounds, preparation method therefor and use thereof” (BEIJING SCITECH-MQ PHARMACEUTICALS LIMITED, priority 2017, dated 2021)

Tests used:
B-RAF = B-RAF (Homo sapiens (Human), UniProt P15056); test: Test of small molecule compounds for inhibiting the activity of B-RAF kinase (ADP-Glo)
Protocol: (§11) Test of Small Molecule Compounds for Inhibiting the Activity of C-RAF and B-RAF Kinases
The test was carried out as follows:
(§12) 1. Preparation of test compounds: according to the molecular weight of the compounds, an appropriate volume of DMSO was directly added to dissolve the test compounds. For storing the compound, the concentration of DMSO is 100%, and the final concentration of DMSO in the experimental system is 1%.
(§13) Enzyme: B-RAF: 0.1 ng/l (the final concentration in the reaction system); C-RAF: 0.1 ng/μl (the final concentration in the reaction system)
(§14) HPE: the reaction without enzyme (1% DMSO)
(§15) ZPE: the reaction with enzyme but without compound (1% DMSO)
(§16) a) 1 ul of 10-fold diluted compound or 10% DMSO was added to a 384-well assay plate,
(§17) b) 4 ul enzyme solution or assay buffer was added to the wells of the assay plate,
(§18) c) the plate was centrifuged at 1000 rpm for 1 minute to homogeneous,
(§19) d) 5 ul of ATP-substrate mixture was added to the wells of the assay plate,
(§20) e) the plate was shaked for mixing for 2 minutes,
(§21) f) the plate was incubated at 30° C. for 1 hour,
(§22) g) 10 ul of ADP-Glo reagent was added to the wells of the assay plate, and the plate was incubated for 40 minutes at 27° C.,
(§23) h) 20 ul of kinase assay solution was added to the wells of the plate, and the plate was incubated for 30 minutes at 27° C.,
(§24) i) the chemiluminescent signal was read with Envision.
(§25) The IC50 values of the positive control compound and the test compounds were calculated using the Prism software according to the variable slope of the curve.

C-RAF = C-RAF (Homo sapiens (Human), UniProt P04049); test: Test of small molecule compounds for inhibiting the activity of C-RAF kinase (ADP-Glo)
Chain of C-RAF (P04049 whole entry): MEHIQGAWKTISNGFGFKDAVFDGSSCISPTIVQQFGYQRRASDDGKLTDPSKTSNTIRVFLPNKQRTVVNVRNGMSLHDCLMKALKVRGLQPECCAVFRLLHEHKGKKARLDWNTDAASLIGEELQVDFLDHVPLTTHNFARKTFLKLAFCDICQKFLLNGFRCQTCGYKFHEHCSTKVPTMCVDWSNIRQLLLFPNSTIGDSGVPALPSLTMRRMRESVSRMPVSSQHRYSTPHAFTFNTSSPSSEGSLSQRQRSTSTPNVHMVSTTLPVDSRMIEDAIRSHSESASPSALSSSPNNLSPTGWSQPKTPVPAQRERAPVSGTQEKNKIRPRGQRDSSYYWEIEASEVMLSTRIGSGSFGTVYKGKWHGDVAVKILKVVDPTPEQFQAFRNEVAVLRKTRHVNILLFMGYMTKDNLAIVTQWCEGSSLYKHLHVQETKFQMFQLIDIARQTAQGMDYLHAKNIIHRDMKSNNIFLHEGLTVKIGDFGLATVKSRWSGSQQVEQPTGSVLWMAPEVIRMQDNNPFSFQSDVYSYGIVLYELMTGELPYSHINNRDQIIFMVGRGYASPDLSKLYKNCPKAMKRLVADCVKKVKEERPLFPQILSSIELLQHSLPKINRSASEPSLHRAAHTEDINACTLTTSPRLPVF
Protocol: as §11
The test was carried out as follows:
as §12, §13, §14, §15, §16, §17, §18, §19, §20, §21, §22, §23, §24, §25

VEGFR-2 kinase = VEGFR-2 kinase (Homo sapiens (Human), UniProt P35968); test: Test of small molecule compounds for inhibiting the activity of VEGFR-2 kinase; assay type: biochemical; settings: class symbols A-D
Chain of VEGFR-2 kinase (P35968 20-1356): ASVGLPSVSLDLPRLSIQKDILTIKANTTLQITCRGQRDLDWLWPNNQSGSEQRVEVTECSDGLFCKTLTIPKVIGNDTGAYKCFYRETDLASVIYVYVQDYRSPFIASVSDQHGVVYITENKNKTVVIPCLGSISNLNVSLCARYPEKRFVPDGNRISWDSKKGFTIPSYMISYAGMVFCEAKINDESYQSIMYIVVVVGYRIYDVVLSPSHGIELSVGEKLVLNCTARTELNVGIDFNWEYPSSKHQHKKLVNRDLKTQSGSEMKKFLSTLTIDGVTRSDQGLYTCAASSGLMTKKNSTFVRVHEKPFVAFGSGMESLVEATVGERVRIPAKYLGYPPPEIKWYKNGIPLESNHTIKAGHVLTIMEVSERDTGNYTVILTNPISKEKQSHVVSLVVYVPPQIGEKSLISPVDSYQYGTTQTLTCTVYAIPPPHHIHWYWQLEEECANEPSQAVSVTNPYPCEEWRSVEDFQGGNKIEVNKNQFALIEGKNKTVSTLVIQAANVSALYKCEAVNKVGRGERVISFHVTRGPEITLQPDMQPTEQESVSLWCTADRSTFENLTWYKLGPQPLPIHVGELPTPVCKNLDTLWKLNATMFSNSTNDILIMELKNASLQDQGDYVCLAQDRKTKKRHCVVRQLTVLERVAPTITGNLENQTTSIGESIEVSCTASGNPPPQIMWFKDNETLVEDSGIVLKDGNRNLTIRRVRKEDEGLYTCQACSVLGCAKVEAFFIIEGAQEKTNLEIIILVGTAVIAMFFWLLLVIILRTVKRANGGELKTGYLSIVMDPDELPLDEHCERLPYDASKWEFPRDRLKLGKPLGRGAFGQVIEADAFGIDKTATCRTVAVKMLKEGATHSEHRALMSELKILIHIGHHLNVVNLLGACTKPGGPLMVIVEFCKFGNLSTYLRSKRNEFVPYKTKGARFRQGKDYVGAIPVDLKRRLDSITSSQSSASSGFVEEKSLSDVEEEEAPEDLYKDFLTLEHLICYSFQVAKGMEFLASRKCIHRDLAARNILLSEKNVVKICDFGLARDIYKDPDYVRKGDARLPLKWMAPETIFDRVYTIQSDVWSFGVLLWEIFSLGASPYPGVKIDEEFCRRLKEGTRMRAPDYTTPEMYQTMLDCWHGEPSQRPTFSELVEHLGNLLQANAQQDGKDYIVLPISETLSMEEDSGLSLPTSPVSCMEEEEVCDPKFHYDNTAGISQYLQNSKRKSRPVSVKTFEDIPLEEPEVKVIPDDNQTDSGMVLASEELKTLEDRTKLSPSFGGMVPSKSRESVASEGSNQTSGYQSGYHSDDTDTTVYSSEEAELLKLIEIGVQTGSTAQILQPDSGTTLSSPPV
In short: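 Kinase pre-incubated with diluted compounds for 30 min at room temperature, then substrate/ATP mix added and reaction run 60 min at room temperature in the dark […]. Signal read on a plate reader.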

[1] = test system: A549 lung cancer cell line; test: Cell survival assay (CCK-8), A549; assay type: cell-based; settings: Homo sapiens, A549 cells, 72 h incubation
Protocol: (§1) Biological Example 3. Cell Survival Assay for Small Molecule Compounds
(§2) The specific procedure was carried out as follows:
(§3) 1. 600 μL of trypsin was added to a T75 cell culture flask, it was digested in a 37° C. incubator for about 1 min, then 5 mL of DMEM complete medium was added, which was blowed evenly, transferred to a 15 mL centrifuge tube, and centrifuged at 1000 rpm for 4 min;
(§4) 2. The supernatant was discarded, 5 mL of DMEM complete medium was added, which was blowed evenly, and then mixed with 10 μL of cell suspension and 10 μL of 0.4% trypan blue, and reading was recorded using a cell counter;
(§5) 3. Cells of […] different cell lines (MHCC97H, HuH7, HepG2, A549, 8505C) were seeded in 96-well plates at a cell density of 6000 cells/80 μL of complete medium/well, and cultured overnight. Only sterile water was added in the outer 36 wells of the 96-well plates, and the remaining inside 60 wells were used for cell experiments and controls;
(§6) 4. Dilution of compounds: a total of 10 concentrations of the compounds were obtained using a 3-fold dilution from the starting concentration of 10 mM.
(§7) 5. 20 μL of different compounds in different concentrations were added to each corresponding well, and the remaining wells were added with 20 μL of complete medium, the plate was shaked, and the concentration of DMSO in each well is 0.25%.
(§8) 6. After incubation for 72 h, 10 μL of CCK-8 reagent was added to each well, and cultured at 37° C. for 1-2 h; the OD value was read at 450 nm.
(§9) 7. Cell Viability (%)=[(As−Ab)/(Ac−Ab)]*100% • As: Experimental well (medium containing cells, CCK-8, compound) • Ac: Control well (medium containing cells, CCK-8) • Ab: Blank well (medium without cell and compound, CCK-8)
(§10) Table (3) lists the determination results of the activity of representative compounds of the present disclosure against various cancer cells, wherein MHCC97H, HuH7, and HepG2 are liver cancer cell lines, A549 is a lung cancer cell line, and 8505C is a thyroid cancer cell line.

[2] = test system: HuH7 liver cancer cell line; test: Cell survival assay (CCK-8), HuH7; assay type: cell-based; settings: Homo sapiens, Huh-7, HuH7 cells, 72 h incubation
Protocol: as §1, §2, §3, §4, §5, §6, §7, §8, §9, §10

[3] = test system: MHCC97H liver cancer cell line; test: Cell survival assay (CCK-8), MHCC97H; assay type: cell-based; settings: Homo sapiens, MHCC97H cells, 72 h incubation
Protocol: as §1, §2, §3, §4, §5, §6, §7, §8, §9, §10

[4] = test system: 8505C thyroid cancer cell line; test: Cell survival assay (CCK-8), 8505C; assay type: cell-based; settings: Homo sapiens, 8505C cells, 72 h incubation
Protocol: as §1, §2, §3, §4, §5, §6, §7, §8, §9, §10

[5] = test system: HepG2 liver cancer cell line; test: Cell survival assay (CCK-8), HepG2; assay type: cell-based; settings: Homo sapiens, HepG2 cells, 72 h incubation
Protocol: as §1, §2, §3, §4, §5, §6, §7, §8, §9, §10

Chain of B-RAF (P15056 whole entry): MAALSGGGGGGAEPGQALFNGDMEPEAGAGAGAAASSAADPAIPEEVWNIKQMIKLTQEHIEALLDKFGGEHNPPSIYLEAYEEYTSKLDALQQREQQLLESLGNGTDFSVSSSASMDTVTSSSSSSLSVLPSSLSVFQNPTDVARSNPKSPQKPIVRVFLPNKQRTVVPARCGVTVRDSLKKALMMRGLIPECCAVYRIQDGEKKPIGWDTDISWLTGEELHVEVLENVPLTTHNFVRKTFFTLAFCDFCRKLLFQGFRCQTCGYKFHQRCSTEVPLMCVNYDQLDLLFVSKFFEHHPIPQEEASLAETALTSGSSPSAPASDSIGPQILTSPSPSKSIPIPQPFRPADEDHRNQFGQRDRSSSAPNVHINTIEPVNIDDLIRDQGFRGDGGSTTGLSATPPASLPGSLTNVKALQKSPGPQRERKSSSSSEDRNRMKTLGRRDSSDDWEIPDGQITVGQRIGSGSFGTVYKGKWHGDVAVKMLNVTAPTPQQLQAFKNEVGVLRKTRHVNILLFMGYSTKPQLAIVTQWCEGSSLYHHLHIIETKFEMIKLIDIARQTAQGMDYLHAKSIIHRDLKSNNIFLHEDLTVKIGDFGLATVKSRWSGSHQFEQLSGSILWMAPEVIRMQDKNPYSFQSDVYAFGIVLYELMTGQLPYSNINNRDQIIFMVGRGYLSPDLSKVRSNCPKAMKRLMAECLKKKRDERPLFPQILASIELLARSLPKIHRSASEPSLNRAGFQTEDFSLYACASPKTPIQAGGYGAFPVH

Row | IC50 (B-RAF) [nM] | IC50 (C-RAF) [nM] | IC50 (VEGFR-2 kinase) [nM] | Compound | IC50 [1] [nM] | IC50 [2] [nM] | IC50 [3] [nM] | IC50 [4] [nM] | IC50 [5] [nM]
2 | > 1000 | > 1000 | < 50 | COc1cc2ncnc(Nc3ccc(NC(=O)Nc4cccc(S(C)(=O)=O)c4)c(Cl)c3)c2c2c1OCCO2 [Example 17, 1-(2-chloro-4-((5-methoxy-2,3-dihydro-[1,4]dioxino[2,3-f]quinazolin-10-yl)amino)phenyl)-3-(3-methylsulfonylphenyl)urea] | – | – | – | – | –
3 | 200 to 500 | 200 to 500 | < 50 | COc1cc2ncnc(Oc3ccc(NC(=O)Nc4ccc(Cl)c(C(F)(F)F)c4)cc3)c2c2c1OCCO2 [Example 18, 1-(4-chloro-3-(trifluoromethyl)phenyl)-3-(4-((5-methoxy-2,3-dihydro-[1,4]dioxino[2,3-f]quinazolin-10-yl)oxy)phenyl)urea] | 1040 | 1330 | > 2500 | 23.2 | 1740
4 | < 200 | < 200 | < 50 | COc1cc2ncnc(Oc3ccc(NC(=O)Nc4ccc(Cl)c(C(F)(F)F)c4)c(F)c3)c2c2c1OCCO2 [Example 19, 1-(4-chloro-3-(trifluoromethyl)phenyl)-3-(2-fluoro-4-((5-methoxy-2,3-dihydro-[1,4]dioxino[2,3-f]quinazolin-10-yl)oxy)phenyl)urea] | – | – | – | – | –
5 | […] | […] | […] | COc1cc2ncnc(Oc3ccc(NC(=O)Nc4cc(C(F)(F)F)ccc4F)cc3)c2c2c1OCCO2 [Example 20, 1-(2-fluoro-5-(trifluoromethyl)phenyl)-3-(4-((5-methoxy-2,3-dihydro-[1,4]dioxino[2,3-f]quinazolin-10-yl)oxy)phenyl)urea] | 1120 | 856 | 1720 | 20.3 | 302
6 | < 200 | 500 to 1000 | < 50 | COCCOc1cc2ncnc(Nc3ccc(NC(=O)Nc4ccc(Cl)c(C(F)(F)F)c4)c(Cl)c3)c2c2c1OCCO2 [Example 42, 1-(2-chloro-4-((5-(2-methoxyethoxy)-2,3-dihydro-[1,4]dioxino[2,3-f]quinazolin-10-yl)amino)phenyl)-3-(4-chloro-3-(trifluoromethyl)phenyl)urea] | – | – | – | – | –
7 | > 1000 | > 1000 | < 50 | COCCOc1cc2ncnc(Oc3ccc(NC(=O)NC4CC4)c(Cl)c3)c2c2c1OCCO2 [Example 45, 1-(2-chloro-4-((5-(2-methoxyethoxy)-2,3-dihydro-[1,4]dioxino[2,3-f]quinazolin-10-yl)oxy)phenyl)-3-cyclopropylurea] | – | – | – | – | –
8 | 500 to 1000 | 500 to 1000 | < 50 | COCCOc1cc2ncnc(Oc3ccc(NC(=O)Nc4ccc(Cl)c(C(F)(F)F)c4)cc3)c2c2c1OCCO2 [Example 46, 1-(4-chloro-3-(trifluoromethyl)phenyl)-3-(4-((5-(2-methoxyethoxy)-2,3-dihydro-[1,4]dioxino[2,3-f]quinazolin-10-yl)oxy)phenyl)urea] | 428 | 1260 | > 2500 | 8.57 | 2360
9 | […] | […] | […] | COCCOc1cc2ncnc(Oc3ccc(NC(=O)Nc4cc(C(F)(F)F)ccc4F)cc3)c2c2c1OCCO2 [Example 47, 1-(2-fluoro-5-(trifluoromethyl)phenyl)-3-(4-((5-(2-methoxyethoxy)-2,3-dihydro-[1,4]dioxino[2,3-f]quinazolin-10-yl)oxy)phenyl)urea] | 194 | 585 | 714 | 5.35 | 123
10 | > 1000 | > 1000 | < 50 | COCCOc1cc2ncnc(Oc3ccc(NC(=O)Nc4ccc(F)cc4F)c(F)c3)c2c2c1OCCO2 [Example 49, 1-(2,4-difluorophenyl)-3-(2-fluoro-4-((5-(2-methoxyethoxy)-2,3-dihydro-[1,4]dioxino[2,3-f]quinazolin-10-yl)oxy)phenyl)urea] | – | – | – | – | –
11 | > 1000 | > 1000 | < 50 | COCCOc1cc2ncnc(Oc3ccc(NC(=O)Nc4cccc(OC)c4)cc3)c2c2c1OCCO2 [Example 50, 1-(4-((5-(2-methoxyethoxy)-2,3-dihydro-[1,4]dioxino[2,3-f]quinazolin-10-yl)oxy)phenyl)-3-(3-methoxyphenyl)urea] | – | – | – | – | –
12 | > 1000 | > 1000 | < 50 | O=C(Nc1ccc(Oc2ncnc3cc(OCCCN4CCCC4)c4c(c23)OCCO4)cc1Cl)NC1CC1 [Example 62, 1-(2-chloro-4-((5-(3-(pyrrolidin-1-yl)propoxy)-2,3-dihydro-[1,4]dioxino[2,3-f]quinazolin-10-yl)oxy)phenyl)-3-cyclopropylurea] | – | – | – | – | –
13 | > 1000 | > 1000 | < 50 | O=C(Nc1ccc(Oc2ncnc3cc(OCCCN4CCOCC4)c4c(c23)OCCO4)cc1Cl)NC1CC1 [Example 64] | – | – | – | – | –
15 | 200 to 500 | 200 to 500 | < 50 | O=C(Nc1ccc(Oc2ncnc3cc(OCCCN4CCOCC4)c4c(c23)OCCO4)cc1)Nc1ccc(Cl)c(C(F)(F)F)c1 [Example 66, 1-(4-chloro-3-(trifluoromethyl)phenyl)-3-(4-((5-(3-morpholinopropoxy)-2,3-dihydro-[1,4]dioxino[2,3-f]quinazolin-10-yl)oxy)phenyl)urea] | – | – | – | – | –
16 | 200 to 500 | 500 to 1000 | < 50 | O=C(Nc1ccc(Oc2ncnc3cc(OCCCN4CCOCC4)c4c(c23)OCCO4)c(F)c1)Nc1cc(C(F)(F)F)ccc1F [Example 67, 1-(3-fluoro-4-((5-(3-morpholinopropoxy)-2,3-dihydro-[1,4]dioxino[2,3-f]quinazolin-10-yl)oxy)phenyl)-3-(2-fluoro-5-(trifluoromethyl)phenyl)urea] | – | – | – | – | –
17 | 200 to 500 | 500 to 1000 | < 50 | O=C(Nc1ccc(Oc2ncnc3cc(OCCCN4CCOCC4)c4c(c23)OCCO4)c(F)c1)Nc1ccc(Cl)c(C(F)(F)F)c1 [Example 68, 1-(4-chloro-3-(trifluoromethyl)phenyl)-3-(3-fluoro-4-((5-(3-morpholinopropoxy)-2,3-dihydro-[1,4]dioxino[2,3-f]quinazolin-10-yl)oxy)phenyl)urea] | – | – | – | – | –
18 | – | – | 50 to 500 | COCCOc1cc2nccc(Oc3ccc(NC(=O)Nc4ccc(Cl)c(C(F)(F)F)c4)cc3)c2c2c1OCCO2 [Example 93, 1-(4-chloro-3-(trifluoromethyl)phenyl)-3-(4-((5-(2-methoxyethoxy)-2,3-dihydro-[1,4]dioxino[2,3-f]quinoline-10-yl)oxy)phenyl)urea] | – | – | – | – | –
19 | – | – | 50 to 500 | COCCOc1cc2nccc(Oc3ccc(NC(=O)Nc4ccc(Cl)c(C(F)(F)F)c4)cc3F)c2c2c1OCCO2 [Example 94, 1-(4-chloro-3-(trifluoromethyl)phenyl)-3-(3-fluoro-4-((5-(2-methoxyethoxy)-2,3-dihydro-[1,4]dioxino[2,3-f]quinoline-10-yl)oxy)phenyl)urea] | – | – | – | – | –
